Target: T1, recombinant human PAI-1 (Homo sapiens, UniProt P05121)
T1 construct: purchased Molecular Innovations, Inc
Experiment: Test Example 2: human PAI-1 inhibitory activity (tPA fluorogenic substrate, pH 7.4 HEPES buffer)
Assay type: biochemical
Settings: human PAI-1
Method: 0.1 M HEPES, 0.1 M NaCl. 1 mM EDTA. 0.1% Polyethylene glycol 8,000 (Hampton Research Corporation),
2 mM Dimethyldecylphoshine oxide [Apo-10] (Fluka Corporation)

T1 sequence (P05121 24-402): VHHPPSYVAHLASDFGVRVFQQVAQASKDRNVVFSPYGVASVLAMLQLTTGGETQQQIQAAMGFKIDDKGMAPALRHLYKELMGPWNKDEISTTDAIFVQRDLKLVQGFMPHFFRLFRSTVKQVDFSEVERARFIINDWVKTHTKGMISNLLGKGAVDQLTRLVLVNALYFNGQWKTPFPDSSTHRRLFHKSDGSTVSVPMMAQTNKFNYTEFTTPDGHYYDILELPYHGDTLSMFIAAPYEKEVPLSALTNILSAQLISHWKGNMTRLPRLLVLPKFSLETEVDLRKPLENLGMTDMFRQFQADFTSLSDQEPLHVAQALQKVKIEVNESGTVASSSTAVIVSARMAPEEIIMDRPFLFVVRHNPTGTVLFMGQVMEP

Row | Compound | Inhibition Rate of PAI-1 Activity (%) (compound concentration 1 μM) | Inhibition Rate of PAI-1 Activity (%) (compound concentration 3 μM) | Inhibition Rate of PAI-1 Activity (%) (compound concentration 10 μM) | Inhibition Rate of PAI-1 Activity (%) (compound concentration 25 μM) | Inhibition Rate of PAI-1 Activity (%) (compound concentration 0.1 μM) | Inhibition Rate of PAI-1 Activity (%) (compound concentration 0.3 μM)
1 | O=C(O)C(=O)N(Cc1ccc(-c2ccc(OC(F)(F)F)cc2)cc1)c1ccccc1 [Compound 611] | 5 | 13 | 45 | 81 |  | 
2 | CC(C)(C)c1ccc(N(Cc2ccc(-c3ccccc3)cc2)C(=O)C(=O)O)cc1 [Compound 612] | 7 | 25 | 84 | >99 |  | 
3 | CC(C)(C)c1ccc(-c2ccc(CN(C(=O)C(=O)O)c3ccc(OC(F)(F)F)cc3)cc2)cc1 [Compound 615] | 43 | 98 | >99 | 95 |  | 
4 | CC(C)(C)c1ccc(CN(C(=O)C(=O)O)c2ccc(C(=O)Nc3ccc(OC(F)(F)F)cc3)cc2)cc1 [Compound 617] | 6 | 64 | >99 | >99 |  | 
5 | CN(C(=O)c1ccc(N(Cc2ccc(C(C)(C)C)cc2)C(=O)C(=O)O)cc1)c1ccc(OC(F)(F)F)cc1 [Compound 618] | 0 | 24 | 78 | >99 |  | 
6 | CC(C)(C)c1ccc(CN(C(=O)C(=O)O)c2ccc(N3CCN(c4ccccc4)CC3)cc2)cc1 [Compound 627] | 0 | 14 | 57 | >99 |  | 
7 | CC(C)(C)c1ccc(CN(C(=O)C(=O)O)c2ccc(N3CCN(c4ccc(OC(F)(F)F)cc4)CC3)cc2)cc1 [Compound 628] | 40 | >99 | >99 | 90 |  | 
8 | O=C(O)C(=O)N(Cc1ccc(-c2ccc(OC(F)(F)F)cc2)cc1)c1ccccc1-c1ccccc1 [Compound 632] | 31 | 97 |  |  | 0 | 9
9 | O=C(O)C(=O)N(CCCCc1ccccc1)c1cc(-c2ccc(OC(F)(F)F)cc2)ccc1OC1C2CC3CC(C2)CC1C3 (centres unmarked) [Compound 634] | >99 | 92 |  |  | 17 | 37
10 | CC(C)(C)c1ccc(Oc2cc(-c3ccc(OC(F)(F)F)cc3)ccc2N(CCCCc2ccccc2)C(=O)C(=O)O)cc1 [Compound 635] | 45 | 91 |  |  | 14 | 30
11 | CC(C)(C)c1ccc(Oc2ccc(-c3ccc(OC(F)(F)F)cc3)cc2N(CCCCc2ccccc2)C(=O)C(=O)O)cc1 [Compound 636] | 72 | 81 |  |  | 2 | 21
12 | CCCCC1CCC(Oc2ccc(-c3ccc(OC(F)(F)F)cc3)cc2N(CCCCc2ccccc2)C(=O)C(=O)O)CC1 (centres unmarked) [Compound 637] | 80 | 71 |  |  | 0 | 5
13 | O=C(O)C(=O)N(CCCCc1ccccc1)c1cc(-c2ccc(OC(F)(F)F)cc2)ccc1Oc1ccccc1 [Compound 638] | 57 | >99 |  |  | 5 | 15
14 | CC(C)[C@@H]1CC[C@@H](C)C[C@H]1Oc1ccc(-c2ccc(OC(F)(F)F)cc2)cc1N(CCCCc1ccccc1)C(=O)C(=O)O [Compound 639] | 91 | 87 |  |  | 6 | 12
15 | CCCCCOc1ccc(-c2ccc(OC(F)(F)F)cc2)cc1N(CCCCc1ccccc1)CC(=O)O [Compound 640] | 92 | 92 |  |  | 0 | 19
16 | CCCCC(C(=O)O)N(Cc1ccc(C(C)(C)C)cc1)c1cccc(-c2ccc(OC(F)(F)F)cc2)c1 (centres unmarked) [Compound 641] | 95 | 95 |  |  | 9 | 53
17 | CCCCC(C(=O)O)N(Cc1ccc(C(C)(C)C)cc1)c1ccc(-c2ccc(OC(F)(F)F)cc2)cc1 (centres unmarked) [Compound 642] | 94 | 93 |  |  | 16 | 57
18 | CCCCCOc1cc(-c2ccc(OC(F)(F)F)cc2)ccc1N(CCCCc1ccccc1)CC(=O)O [Compound 643] | 38 | 92 |  |  | 0 | 18
19 | CC(C)(C)OCCOc1ccc(-c2ccc(OC(F)(F)F)cc2)cc1N(CCCCc1ccccc1)CC(=O)O [Compound 644] | 30 | 93 |  |  | 27 | 8
20 | CCCCCOc1ccc(-c2ccc(OC(F)(F)F)cc2)cc1CN(C(=O)C(=O)O)c1ccc(C(C)(C)C)cc1 [Compound 645] | 95 | >99 |  |  | 6 | 26
21 | O=C(O)CCCCCCCCOc1ccc(-c2ccc(OC(F)(F)F)cc2)cc1N(CCCCc1ccccc1)C(=O)C(=O)O [Compound 646] | 38 | 86 |  |  | 4 | 15
22 | CCCCCOc1ccc(-c2ccc(OC(F)(F)F)cc2)cc1CN(CC(=O)O)c1ccc(C(C)(C)C)cc1 [Compound 647] | 95 | 98 |  |  | 27 | 43
23 | CCCCCOc1cc(-c2ccc(OC(F)(F)F)cc2)ccc1CN(C(=O)C(=O)O)c1ccc(C(C)(C)C)cc1 [Compound 648] | 86 | 89 |  |  | 4 | 23
24 | CCCCCOc1cc(-c2ccc(OC(F)(F)F)cc2)ccc1CN(CC(=O)O)c1ccc(C(C)(C)C)cc1 [Compound 649] | 96 | 97 |  |  | 10 | 64
25 | CCCCCCCOc1cc(N(CCCCc2ccccc2)C(=O)C(=O)O)ccc1-c1ccc(OC(F)(F)F)cc1 [Compound 650] | >99 | >99 |  |  | 16 | 40
26 | COc1ccc(-c2ccc(OC(F)(F)F)cc2)cc1N(CCCCc1ccccc1)C(=O)C(=O)O [Compound 651] | 15 | 74 |  |  | 0 | 0
27 | CCCCCCOc1ccc(-c2ccc(OC(F)(F)F)cc2)cc1N(CCCCc1ccccc1)C(=O)C(=O)O [Compound 652] | >99 | >99 |  |  | 19 | 22
28 | CCCCCCCCOc1ccc(-c2ccc(OC(F)(F)F)cc2)cc1N(CCCCc1ccccc1)C(=O)C(=O)O [Compound 653] | >99 | >99 |  |  | 43 | 95
29 | CCCCCOc1cc(N(CCCCc2ccccc2)C(=O)C(=O)O)ccc1-c1ccc(OC(F)(F)F)cc1 [Compound 654] | >99 | >99 |  |  | 4 | 19
